Laboratory results from PubChem BioAssay (NCI).
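Where inhibition never reached the appropriate level, the endpoint shown equals the highest concentration tested. Otherwise, values were interpolated linearly from a five-concentration, 48-hour dose response in 96-well plates. GI50 is the concentration that inhibits growth by half. TGI: total growth inhibition.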

Legend:
Assay in all cases: NCI tumour cell line growth inhibition, 48 h
COLO 205 colon = system: COLO 205 colon
HCT-116 colon = system: HCT-116 colon
HS 578T breast = system: HS 578T breast
LOX IMVI melanoma = system: LOX IMVI melanoma
MCF7 breast = system: MCF7 breast
MDA-MB-231 breast = system: MDA-MB-231 breast
SK-MEL-5 melanoma = system: SK-MEL-5 melanoma
SNB-19 CNS = system: SNB-19 CNS
UACC-62 melanoma = system: UACC-62 melanoma
SF-539 CNS = system: SF-539 CNS

Structure (SMILES): CC1=C(C(=O)Nc2ccc(F)c(Cl)c2)C(c2cccc(O)c2)NC(=S)N1 (stereo not drawn)
- GI50 (COLO 205 colon): 22.2 µM
- TGI (COLO 205 colon): > 50 µM
- GI50 (HCT-116 colon): 34.2 µM
- TGI (HCT-116 colon): > 50 µM
- GI50 (HS 578T breast): 13.7 µM
- TGI (HS 578T breast): 47 µM
- GI50 (LOX IMVI melanoma): 13.7 µM
- TGI (LOX IMVI melanoma): 41 µM
- GI50 (MCF7 breast): 17.5 µM
- TGI (MCF7 breast): > 50 µM
- GI50 (MDA-MB-231 breast): 10.9 µM
- TGI (MDA-MB-231 breast): 30.2 µM
- GI50 (SK-MEL-5 melanoma): 11.2 µM
- TGI (SK-MEL-5 melanoma): 40.3 µM
- GI50 (SNB-19 CNS): > 50 µM
- TGI (SNB-19 CNS): > 50 µM
- GI50 (UACC-62 melanoma): 11.9 µM
- TGI (UACC-62 melanoma): 36.6 µM

Structure (SMILES): O=C1C(c2ccc(Cl)cc2)=[N+]([O-])c2ccccc21
- TGI (COLO 205 colon): 32.4 µM
- TGI (HCT-116 colon): 27.8 µM
- TGI (LOX IMVI melanoma): 27.7 µM
- TGI (SF-539 CNS): 36 µM
- TGI (SK-MEL-5 melanoma): 26.6 µM
- TGI (SNB-19 CNS): 53.8 µM
- TGI (UACC-62 melanoma): 32.2 µM

Structure (SMILES): COc1ccc(-c2nc3sccn3c2/C=C/C(=O)c2cc(OC)c(OC)c(OC)c2)cc1OC
- GI50 (COLO 205 colon): 2.41 µM
- TGI (COLO 205 colon): 5.98 µM
- GI50 (HCT-116 colon): 2.31 µM
- TGI (HCT-116 colon): 6.44 µM
- GI50 (LOX IMVI melanoma): 2.6 µM
- TGI (LOX IMVI melanoma): 10 µM
- GI50 (MDA-MB-231 breast): 2.87 µM
- TGI (MDA-MB-231 breast): 27.7 µM
- GI50 (SF-539 CNS): 1.78 µM
- TGI (SF-539 CNS): 3.74 µM
- GI50 (SK-MEL-5 melanoma): 1.54 µM
- TGI (SK-MEL-5 melanoma): 2.99 µM
- GI50 (SNB-19 CNS): 2.45 µM
- TGI (SNB-19 CNS): 6.3 µM
- GI50 (UACC-62 melanoma): 2.15 µM
- TGI (UACC-62 melanoma): 5.55 µM

Structure (SMILES): COc1cccc2c(Nc3ccc(C(=O)NCCNCCO)cc3)cc(-c3ccccc3)nc12
- GI50 (COLO 205 colon): 23.6 µM
- TGI (COLO 205 colon): 86.6 µM
- GI50 (HCT-116 colon): 34.6 µM
- TGI (HCT-116 colon): > 100 µM
- GI50 (HS 578T breast): 29.3 µM
- TGI (HS 578T breast): > 100 µM
- GI50 (LOX IMVI melanoma): 3.17 µM
- TGI (LOX IMVI melanoma): 23.2 µM
- GI50 (MDA-MB-231 breast): 25.5 µM
- TGI (MDA-MB-231 breast): 73.5 µM
- GI50 (SF-539 CNS): 40.9 µM
- TGI (SF-539 CNS): > 100 µM
- GI50 (SK-MEL-5 melanoma): 38.6 µM
- TGI (SK-MEL-5 melanoma): > 100 µM
- GI50 (UACC-62 melanoma): 62.4 µM
- TGI (UACC-62 melanoma): > 100 µM

Structure (SMILES): Cc1ccc(C2=[N+]([O-])c3ccccc3C2=O)cc1
- TGI (COLO 205 colon): > 72.8 µM
- TGI (HCT-116 colon): > 54.4 µM
- TGI (LOX IMVI melanoma): 31.2 µM
- TGI (SF-539 CNS): 77.7 µM
- TGI (SK-MEL-5 melanoma): 27.5 µM
- TGI (SNB-19 CNS): > 77.2 µM
- TGI (UACC-62 melanoma): 33.1 µM

Structure (SMILES): O=NN(CCCl)C(=O)NCc1ccc[n+]([O-])c1
- TGI (COLO 205 colon): > 100 µM
- TGI (HCT-116 colon): > 100 µM
- TGI (LOX IMVI melanoma): > 100 µM
- TGI (SF-539 CNS): > 100 µM
- TGI (SK-MEL-5 melanoma): > 100 µM
- TGI (UACC-62 melanoma): > 100 µM

Structure (SMILES): O=C(c1ccccc1)c1ccc2cccc(O)c2n1
- TGI (COLO 205 colon): > 100 µM
- TGI (HCT-116 colon): 35.1 µM
- TGI (LOX IMVI melanoma): 28 µM
- TGI (SF-539 CNS): > 100 µM
- TGI (SK-MEL-5 melanoma): 75.8 µM
- TGI (SNB-19 CNS): > 100 µM
- TGI (UACC-62 melanoma): > 100 µM

Structure (SMILES): N.N.NCCCCN.O=C([O-])CC(=O)[O-].O=C([O-])CC(=O)[O-].[Pt+4].[Pt+4]
- GI50 (COLO 205 colon): > 100 µM
- TGI (COLO 205 colon): > 100 µM
- GI50 (HCT-116 colon): > 100 µM
- TGI (HCT-116 colon): > 100 µM
- GI50 (LOX IMVI melanoma): 78.3 µM
- TGI (LOX IMVI melanoma): > 100 µM
- GI50 (SF-539 CNS): 76.4 µM
- TGI (SF-539 CNS): > 100 µM
- GI50 (SK-MEL-5 melanoma): > 100 µM
- TGI (SK-MEL-5 melanoma): > 100 µM
- GI50 (SNB-19 CNS): > 100 µM
- TGI (SNB-19 CNS): > 100 µM
- GI50 (UACC-62 melanoma): 77.4 µM
- TGI (UACC-62 melanoma): > 100 µM

Structure (SMILES): N#C[C@]12CC3(CC[C@H]1CC1(C2)OCCO1)OCCO3
- TGI (COLO 205 colon): > 100 µM
- TGI (HCT-116 colon): > 100 µM
- TGI (SF-539 CNS): > 100 µM
- TGI (SK-MEL-5 melanoma): > 100 µM
- TGI (SNB-19 CNS): > 100 µM
- TGI (UACC-62 melanoma): > 100 µM

Structure (SMILES): Cc1ccc(C)c(-n2c(-c3ccc(Br)cc3)csc2=NC(=O)c2ccccc2F)c1
- GI50 (COLO 205 colon): > 100 µM
- TGI (COLO 205 colon): > 100 µM
- GI50 (HCT-116 colon): 3.1 µM
- TGI (HCT-116 colon): > 100 µM
- GI50 (HS 578T breast): > 100 µM
- TGI (HS 578T breast): > 100 µM
- GI50 (LOX IMVI melanoma): > 100 µM
- TGI (LOX IMVI melanoma): > 100 µM
- GI50 (MDA-MB-231 breast): > 100 µM
- TGI (MDA-MB-231 breast): > 100 µM
- GI50 (SF-539 CNS): > 100 µM
- TGI (SF-539 CNS): > 100 µM
- GI50 (SK-MEL-5 melanoma): 2.62 µM
- TGI (SK-MEL-5 melanoma): > 100 µM
- GI50 (SNB-19 CNS): > 100 µM
- TGI (SNB-19 CNS): > 100 µM
- GI50 (UACC-62 melanoma): > 100 µM
- TGI (UACC-62 melanoma): > 100 µM

Structure (SMILES): O=[N+]([O-])c1ccc(OCCNc2cccc3ccccc23)cc1
- TGI (COLO 205 colon): > 100 µM
- TGI (HCT-116 colon): > 100 µM
- TGI (SF-539 CNS): > 100 µM
- TGI (SK-MEL-5 melanoma): > 100 µM
- TGI (SNB-19 CNS): > 100 µM
- TGI (UACC-62 melanoma): > 100 µM

Structure (SMILES): CCCCCCC(O)C/C=C/CCCCCC/C(C(=O)OC)=C(/O)C(=O)OCC (stereo not drawn)
- TGI (COLO 205 colon): > 100 µM
- TGI (HCT-116 colon): > 100 µM
- TGI (LOX IMVI melanoma): > 100 µM
- TGI (SF-539 CNS): > 100 µM
- TGI (SK-MEL-5 melanoma): > 100 µM
- TGI (SNB-19 CNS): > 100 µM
- TGI (UACC-62 melanoma): > 100 µM

Structure (SMILES): CC(C)(C)C(=O)Nc1ccccc1Br
- TGI (COLO 205 colon): > 100 µM
- TGI (HCT-116 colon): > 100 µM
- TGI (LOX IMVI melanoma): > 100 µM
- TGI (SK-MEL-5 melanoma): > 100 µM
- TGI (SNB-19 CNS): > 100 µM
- TGI (UACC-62 melanoma): > 100 µM

Structure (SMILES): O=C1NC(=O)C2=C1CCC2O (stereo not drawn)
- TGI (COLO 205 colon): > 100 µM
- TGI (HCT-116 colon): > 100 µM
- TGI (HS 578T breast): > 100 µM
- TGI (LOX IMVI melanoma): > 100 µM
- TGI (MCF7 breast): > 100 µM
- TGI (MDA-MB-231 breast): > 100 µM
- TGI (SF-539 CNS): > 100 µM
- TGI (SNB-19 CNS): > 100 µM
- TGI (UACC-62 melanoma): > 100 µM
